ChEMBL document CHEMBL1201861, “Genomics of Drug Sensitity in Cancer screening data, Wellcome Trust Sanger Institute”

Tests used:
Assay in all cases: cells
Conditions in all cases: Homo sapiens
[1] = test system: COR-L88; type: functional, cell-based;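 also: growth inhibition of COR-L88 cells, read out with a cell viability assay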
Description: SANGER: Inhibition of human COR-L88 cell growth in a cell viability assay.

[2] = test system: CTB-1; type: functional, cell-based
Description: SANGER: Inhibition of human CTB-1 cell growth in a cell viability assay.

[3] = test system: D283 Med; type: functional, cell-based
Description: SANGER: Inhibition of human D-283MED cell growth in a cell viability assay.

[4] = test system: DB; type: functional, cell-based
Description: SANGER: Inhibition of human DB cell growth in a cell viability assay.

[5] = test system: ES1; type: functional, cell-based;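 also: growth inhibition of ES1 cells, read out with a cell viability assay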
Description: SANGER: Inhibition of human ES1 cell growth in a cell viability assay.

[6] = test system: ES3; type: functional, cell-based;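 also: growth inhibition of ES3 cells, read out with a cell viability assay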
Description: SANGER: Inhibition of human ES3 cell growth in a cell viability assay.

[7] = test system: ES6; type: functional, cell-based;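 also: growth inhibition of human ES6 cells, read out with a cell viability assay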
Description: SANGER: Inhibition of human ES6 cell growth in a cell viability assay.

[8] = test system: ES8; type: functional, cell-based;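 also: growth inhibition of human ES8 cells, read out with a cell viability assay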
Description: SANGER: Inhibition of human ES8 cell growth in a cell viability assay.

[9] = test system: EW-13; type: functional, cell-based;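 also: growth inhibition of EW-13 cells, read out with a cell viability assay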
Description: SANGER: Inhibition of human EW-13 cell growth in a cell viability assay.

[10] = test system: EW-16; type: functional, cell-based;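 also: growth inhibition of human EW-16 cells, read out as cell viability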
Description: SANGER: Inhibition of human EW-16 cell growth in a cell viability assay.

[11] = test system: EW-3; type: functional, cell-based;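 also: cell viability assay read-out, IC50 reflects inhibition of growth of the EW-3 cells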
Description: SANGER: Inhibition of human EW-3 cell growth in a cell viability assay.

[12] = test system: GB-1; type: functional, cell-based;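 also: growth of GB-1 cells judged by a viability assay, IC50 marks the concentration inhibiting growth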
Description: SANGER: Inhibition of human GB-1 cell growth in a cell viability assay.

[13] = test system: GI-1; type: functional, cell-based;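 also: growth inhibition of human GI-1 cells, measured with a cell viability readout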
Description: SANGER: Inhibition of human GI-1 cell growth in a cell viability assay.

[14] = test system: GR-ST; type: functional, cell-based
Description: SANGER: Inhibition of human GR-ST cell growth in a cell viability assay.

[15] = test system: HCE-4; type: functional, cell-based;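 also: cell viability assay measuring inhibition of growth in the human HCE-4 cell line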
Description: SANGER: Inhibition of human HCE-4 cell growth in a cell viability assay.

[16] = test system: HDLM-2; type: functional, cell-based;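 also: cell viability assay measuring suppression of HDLM-2 proliferation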
Description: SANGER: Inhibition of human HDLM-2 cell growth in a cell viability assay.

[17] = test system: HEL; type: functional, cell-based;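 also: growth inhibition of HEL cells, read out with a cell viability assay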
Description: SANGER: Inhibition of human HEL cell growth in a cell viability assay.

[18] = test system: J-RT3-T3-5; type: functional, cell-based;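 also: cell viability assay measuring growth inhibition of human J-RT3-T3-5 cells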
Description: SANGER: Inhibition of human J-RT3-T3-5 cell growth in a cell viability assay.

[19] = test system: JAR; type: functional, cell-based;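 also: growth inhibition of human JAR cells determined with a cell viability assay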
Description: SANGER: Inhibition of human JAR cell growth in a cell viability assay.

[20] = test system: JVM-3; type: functional, cell-based;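 also: growth inhibition of human JVM-3 cells, read out with a cell viability assay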
Description: SANGER: Inhibition of human JVM-3 cell growth in a cell viability assay.

[21] = test system: K5; type: functional, cell-based
Description: SANGER: Inhibition of human K5 cell growth in a cell viability assay.

[22] = test system: KG-1; type: functional, cell-based;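 also: growth inhibition of KG-1 cells, read out by a cell viability assay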
Description: SANGER: Inhibition of human KG-1 cell growth in a cell viability assay.

[23] = test system: KGN; type: functional, cell-based;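 also: growth inhibition of KGN cells, read out with a cell viability assay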
Description: SANGER: Inhibition of human KGN cell growth in a cell viability assay.

[24] = test system: KM12; type: functional, cell-based;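 also: KM12 cell growth inhibition, read out with a cell viability assay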
Description: SANGER: Inhibition of human KM12 cell growth in a cell viability assay.

[25] = test system: KP-N-YS; type: functional, cell-based;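 also: cell viability assay measuring inhibition of cell line growth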
Description: SANGER: Inhibition of human KP-N-YS cell growth in a cell viability assay.

[26] = test system: LB1047-RCC; type: functional, cell-based;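 also: inhibition of cell growth, determined with a cell viability assay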
Description: SANGER: Inhibition of human LB1047-RCC cell growth in a cell viability assay.

[27] = test system: LB771-HNC; type: functional, cell-based;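 also: growth inhibition of LB771-HNC human cells, read out with a cell viability assay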
Description: SANGER: Inhibition of human LB771-HNC cell growth in a cell viability assay.

[28] = test system: LB831-BLC; type: functional, cell-based;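 also: growth inhibition of LB831-BLC cells, read out with a cell viability assay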
Description: SANGER: Inhibition of human LB831-BLC cell growth in a cell viability assay.

[29] = test system: LOX IMVI; type: functional, cell-based
Description: SANGER: Inhibition of human LOXIMVI cell growth in a cell viability assay.

[30] = test system: LS-411N; type: functional, cell-based
[31] = test system: MFH-ino; type: functional, cell-based;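 also: growth inhibition of human MFH-ino cells, read out by a cell viability assay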
Description: SANGER: Inhibition of human MFH-ino cell growth in a cell viability assay.

[32] = test system: MOLT-16; type: functional, cell-based;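 also: growth inhibition of human MOLT-16 cells, read out with a cell viability assay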
Description: SANGER: Inhibition of human MOLT-16 cell growth in a cell viability assay.

[33] = test system: MOLT-4; type: functional, cell-based;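 also: growth inhibition of MOLT-4 cells, determined with a cell viability readout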
Description: SANGER: Inhibition of human MOLT-4 cell growth in a cell viability assay.

[34] = test system: MS-1; type: functional, cell-based;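 also: growth inhibition of MS-1 cells, read out by cell viability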
Description: SANGER: Inhibition of human MS-1 cell growth in a cell viability assay.

[35] = test system: MV4-11; type: functional, cell-based, MV-4-11;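 also: cell viability readout measuring growth inhibition of human MV-4-11 cells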
Description: SANGER: Inhibition of human MV-4-11 cell growth in a cell viability assay.

[36] = test system: MZ1-PC; type: functional, cell-based;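 also: cell viability assay measuring growth inhibition of human MZ1-PC cells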
Description: SANGER: Inhibition of human MZ1-PC cell growth in a cell viability assay.

[37] = test system: MZ7-mel; type: functional, cell-based;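 also: growth inhibition of human MZ7-mel cells, measured by a cell viability assay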
Description: SANGER: Inhibition of human MZ7-mel cell growth in a cell viability assay.

[38] = test system: NB69; type: functional, cell-based;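 also: growth inhibition of NB69 cells, determined by a cell viability assay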
Description: SANGER: Inhibition of human NB69 cell growth in a cell viability assay.

[39] = test system: NCI-H1355; type: functional, cell-based;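 also: growth inhibition of human NCI-H1355 cells, read out by a cell viability assay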
Description: SANGER: Inhibition of human NCI-H1355 cell growth in a cell viability assay.

[40] = test system: NCI-H1581; type: functional, cell-based;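 also: cell growth inhibition read out by a viability assay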
Description: SANGER: Inhibition of human NCI-H1581 cell growth in a cell viability assay.

[41] = test system: NCI-H1648; type: functional, cell-based;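 also: cell viability assay measuring inhibition of NCI-H1648 cell growth, from the Sanger screening data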
Description: SANGER: Inhibition of human NCI-H1648 cell growth in a cell viability assay.

[42] = test system: NCI-H1838; type: functional, cell-based;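 also: growth inhibition of NCI-H1838 cells, determined with a cell viability readout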
Description: SANGER: Inhibition of human NCI-H1838 cell growth in a cell viability assay.

[43] = test system: NCI-H209; type: functional, cell-based;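 also: growth inhibition of human NCI-H209 cells, measured by a cell viability assay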
Description: SANGER: Inhibition of human NCI-H209 cell growth in a cell viability assay.

[44] = test system: NCI-H526; type: functional, cell-based;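 also: growth inhibition of the human NCI-H526 cell line, measured by a cell viability assay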
Description: SANGER: Inhibition of human NCI-H526 cell growth in a cell viability assay.

[45] = test system: NMC-G1; type: functional, cell-based;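 also: growth inhibition of the NMC-G1 cell line, measured with a cell viability read-out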
Description: SANGER: Inhibition of human NMC-G1 cell growth in a cell viability assay.

[46] = test system: RKO; type: functional, cell-based;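 also: growth inhibition of human RKO cells, read out with a cell viability assay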
Description: SANGER: Inhibition of human RKO cell growth in a cell viability assay.

[47] = test system: RPMI-8226; type: functional, cell-based
Description: SANGER: Inhibition of human RPMI-8226 cell growth in a cell viability assay.

[48] = test system: SBC-1; type: functional, cell-based;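 also: cell viability assay measuring growth inhibition of the SBC-1 cell line, IC50 being the concentration that halves growth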
Description: SANGER: Inhibition of human SBC-1 cell growth in a cell viability assay.

[49] = test system: SCC-15; type: functional, cell-based;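 also: growth inhibition of SCC-15 cells, read out with a cell viability assay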
Description: SANGER: Inhibition of human SCC-15 cell growth in a cell viability assay.

[50] = test system: SK-MEL-1; type: functional, cell-based;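 also: growth inhibition of human SK-MEL-1 cells, read out by a cell viability assay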
Description: SANGER: Inhibition of human SK-MEL-1 cell growth in a cell viability assay.

[51] = test system: SK-PN-DW; type: functional, cell-based;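 also: growth inhibition measured with a viability assay on these cells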
Description: SANGER: Inhibition of human SK-PN-DW cell growth in a cell viability assay.

[52] = test system: SW 954; type: functional, cell-based;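 also: growth inhibition of SW954 human cancer cells, read out as cell viability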
Description: SANGER: Inhibition of human SW954 cell growth in a cell viability assay.

[53] = test system: TE-1; type: functional, cell-based;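 also: growth inhibition of the human TE-1 cell line, read out with a cell viability assay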
Description: SANGER: Inhibition of human TE-1 cell growth in a cell viability assay.

[54] = test system: 697; type: functional, cell-based
Description: SANGER: Inhibition of human 697 cell growth in a cell viability assay.

[55] = test system: A388; type: functional, cell-based;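 also: growth inhibition of human A388 cells, read out with a cell viability assay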
Description: SANGER: Inhibition of human A388 cell growth in a cell viability assay.

[56] = test system: A4-Fuk; type: functional, cell-based;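 also: growth inhibition of A4-Fuk cells, read out by a cell viability assay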
Description: SANGER: Inhibition of human A4-Fuk cell growth in a cell viability assay.

[57] = test system: ACN; type: functional, cell-based;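 also: growth inhibition of the human ACN cell line, read out via cell viability testing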
Description: SANGER: Inhibition of human ACN cell growth in a cell viability assay.

[58] = test system: BB49-HNC; type: functional, cell-based;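 also: cell viability assay read-out, reported as inhibition of BB49-HNC cell growth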
Description: SANGER: Inhibition of human BB49-HNC cell growth in a cell viability assay.

[59] = test system: C2BBe1; type: functional, cell-based
Description: SANGER: Inhibition of human C2BBe1 cell growth in a cell viability assay.

[60] = test system: TE-11; type: functional, cell-based
Description: SANGER: Inhibition of human TE-11 cell growth in a cell viability assay.

[61] = test system: TE-5; type: functional, cell-based
Description: SANGER: Inhibition of human TE-5 cell growth in a cell viability assay.

[62] = test system: TE-6; type: functional, cell-based
Description: SANGER: Inhibition of human TE-6 cell growth in a cell viability assay.

[63] = test system: TE-9; type: functional, cell-based
Description: SANGER: Inhibition of human TE-9 cell growth in a cell viability assay.

[64] = test system: U-266; type: functional, cell-based
Description: SANGER: Inhibition of human U-266 cell growth in a cell viability assay.

[65] = test system: CGTH-W-1; type: functional, cell-based
Description: SANGER: Inhibition of human CGTH-W-1 cell growth in a cell viability assay.

[66] = test system: COLO-684; type: functional, cell-based
Description: SANGER: Inhibition of human COLO-684 cell growth in a cell viability assay.

CCNc1cc(N[C@H]2CC[C@@H](O)CC2)nc(Nc2ccc3c(ccn3Cc3ccccc3)c2)n1
IC50 [1]: > 5120 nM
IC50 [2]: > 5120 nM
IC50 [3]: > 5120 nM
IC50 [4]: > 5120 nM
IC50 [5]: > 5120 nM
IC50 [6]: > 5120 nM
IC50 [7]: > 5120 nM
IC50 [8]: > 5120 nM
IC50 [9]: > 5120 nM
IC50 [10]: > 5120 nM
IC50 [11]: > 5120 nM
IC50 [12]: > 5120 nM
IC50 [13]: 2950 nM
IC50 [14]: > 5120 nM
IC50 [15]: > 5120 nM
IC50 [16]: > 5120 nM
IC50 [17]: > 5120 nM
IC50 [18]: > 5120 nM
IC50 [19]: > 5120 nM
IC50 [20]: > 5120 nM
IC50 [21]: > 5120 nM
IC50 [22]: > 5120 nM
IC50 [23]: > 5120 nM
IC50 [24]: > 5120 nM
IC50 [25]: > 5120 nM
IC50 [26]: > 5120 nM
IC50 [27]: > 5120 nM
IC50 [28]: > 5120 nM
IC50 [29]: > 5120 nM
IC50 [30]: > 5120 nM
IC50 [31]: > 5120 nM
IC50 [32]: > 5120 nM
IC50 [33]: > 5120 nM
IC50 [34]: > 5120 nM
IC50 [35]: > 5120 nM
IC50 [36]: > 5120 nM
IC50 [37]: > 5120 nM
IC50 [38]: > 5120 nM
IC50 [39]: > 5120 nM
IC50 [40]: > 5120 nM
IC50 [41]: > 5120 nM
IC50 [42]: > 5120 nM
IC50 [43]: > 5120 nM
IC50 [44]: > 5120 nM
IC50 [45]: > 5120 nM
IC50 [46]: 4720 nM
IC50 [47]: > 5120 nM
IC50 [48]: > 5120 nM
IC50 [49]: > 5120 nM
IC50 [50]: > 5120 nM
IC50 [51]: > 5120 nM
IC50 [52]: > 5120 nM
IC50 [53]: > 5120 nM
IC50 [54]: 4170 nM
IC50 [55]: > 5120 nM
IC50 [56]: > 5120 nM
IC50 [57]: > 5120 nM
IC50 [58]: > 5120 nM
IC50 [59]: > 5120 nM
IC50 [60]: > 5120 nM
IC50 [61]: > 5120 nM
IC50 [62]: > 5120 nM
IC50 [63]: > 5120 nM
IC50 [64]: > 5120 nM
IC50 [65]: > 5120 nM
IC50 [66]: > 5120 nM

Cn1cc(/C=C2\C(=O)Nc3cccnc32)c2ccccc21
IC50 [1]: > 2000 nM
IC50 [2]: > 2000 nM
IC50 [3]: > 2000 nM
IC50 [4]: > 2000 nM
IC50 [5]: > 2000 nM
IC50 [6]: > 2000 nM
IC50 [7]: > 2000 nM
IC50 [8]: > 2000 nM
IC50 [9]: > 2000 nM
IC50 [10]: > 2000 nM
IC50 [11]: > 2000 nM
IC50 [12]: > 2000 nM
IC50 [13]: > 2000 nM
IC50 [14]: > 2000 nM
IC50 [15]: > 2000 nM
IC50 [16]: > 2000 nM
IC50 [17]: > 2000 nM
IC50 [18]: > 2000 nM
IC50 [19]: 972 nM
IC50 [20]: > 2000 nM
IC50 [21]: > 2000 nM
IC50 [22]: > 2000 nM
IC50 [23]: > 2000 nM
IC50 [24]: 1940 nM
IC50 [25]: > 2000 nM
IC50 [26]: > 2000 nM
IC50 [27]: > 2000 nM
IC50 [28]: > 2000 nM
IC50 [29]: > 2000 nM
IC50 [30]: > 2000 nM
IC50 [31]: > 2000 nM
IC50 [32]: > 2000 nM
IC50 [33]: > 2000 nM
IC50 [34]: > 2000 nM
IC50 [35]: 295 nM
IC50 [36]: > 2000 nM
IC50 [37]: > 2000 nM
IC50 [38]: > 2000 nM
IC50 [39]: > 2000 nM
IC50 [40]: > 2000 nM
IC50 [41]: > 2000 nM
IC50 [42]: > 2000 nM
IC50 [43]: > 2000 nM
IC50 [44]: > 2000 nM
IC50 [45]: > 2000 nM
IC50 [46]: > 2000 nM
IC50 [47]: > 2000 nM
IC50 [48]: > 2000 nM
IC50 [49]: > 2000 nM
IC50 [50]: > 2000 nM
IC50 [51]: > 2000 nM
IC50 [52]: > 2000 nM
IC50 [53]: > 2000 nM
IC50 [54]: > 2000 nM
IC50 [55]: > 2000 nM
IC50 [56]: > 2000 nM
IC50 [57]: 865 nM
IC50 [58]: > 2000 nM
IC50 [59]: > 2000 nM
IC50 [60]: > 2000 nM
IC50 [61]: > 2000 nM
IC50 [62]: > 2000 nM
IC50 [63]: > 2000 nM
IC50 [64]: > 2000 nM
IC50 [65]: > 2000 nM
IC50 [66]: > 2000 nM
